From article PMC7751408, “Production, purification and biochemical characterisation of a novel lipase from a newly identified lipolytic bacterium Staphylococcus caprae NCU S6” (Journal of Enzyme Inhibition and Medicinal Chemistry, 2020)

Tested on: T1, SCNL (lipase from Staphylococcus caprae NCU S6)
T1 construct: native extracellular enzyme purified from culture supernatant of the source strain (ammonium sulphate, ultrafiltration, Sephadex G-50, DEAE-Sepharose); ~87 kDa by SDS-PAGE
Experiment: colorimetric p-nitrophenol release at […] nm, Lineweaver-Burk
Format: biochemical
Conditions: 0.1-5.0 mM p-NPP, optimum conditions (optimal pH 9.0 and 40 °C); free enzyme

CCCCCCCCCCCCCCCC(=O)Oc1ccc([N+](=O)[O-])cc1 [p-nitrophenyl palmitate] was tested, and the Km was 695 µM.
